{"source": "patent US7432045B2", "about": "(priority 2003, dated 2008)", "key": {"HSV-1 KOS mutant hrR3 [1]": {"tested_on": "HSV-1 KOS mutant hrR3", "conditions": "read-out: inhibition of hrR3 infection IC50; serum-free conditions"}, "HSV-1 KOS": {"tested_on": "HSV-1 KOS", "test": "Plaque reduction assay", "assay_type": "cell-based", "conditions": "presence of serum", "procedure": "Cell culture and virus: The procedures for growing Vero cells and preparing high titer stocks of HSV-1 KOS as described in Grau et al., Invest. Ophthal. and Vis. Sci. 30: 2474 (1989) were utilized. Vero cells were maintained in carbonate-buffered DMEM supplemented with 5% calf serum and 5% fetal bovine serum (regular medium). For some studies, cells were switched to serum-free DMEM buffered with 25 mM HEPES (pH 7.4) and allowed to adapt to that medium for 30 min prior to experimental treatments. Vero cells were seeded into wells (0.28 cm^2) of microtiter plates either at 3.5×10^4 cells/well for use 1 day later (8×10^4 cells/well) or at 1×10^4 cells/well for use 3 days later (2×10^5 cells/well).\nPlaque reduction assay: Confluent Vero cell cultures in microtiter plates were infected for 1 hour at 37° C. in 40 μL of medium. Except where indicated, peptide treatments in 40 μL of medium lasted from 1 hour before through 1 hour after infection. At the end of the adsorption period, the cultures were re-fed with 100 μL of regular medium. Plaque formation was scored 2 days later and the number of plaques scored per well was normalized to the number counted in the absence of peptide. Using an ocular micrometer, plaque size (π/2×L×S) was determined by measuring the largest plaque diameter (L) and the diameter at a 90° angle to that (S). The size of each of the first 40 scored plaques was measured except when a plaque included less than 10 rounded cells or touched the side of the well."}, "HSV-1 KOS mutant hrR3 [2]": {"tested_on": "HSV-1 KOS mutant hrR3", "test": "Inactivation of pre-adsorbed virus (virus inactivation)", "assay_type": "cell-based", "procedure": "(§1) Two assays were used to assess the ability of the TAT peptides to inhibit infection of Vero cells with the hrR3 virus. In both assays, the virus was preadsorbed to cells at 4° C. and entry was initiated in the presence of peptide by shifting the cultures to a permissive temperature (30-37° C.). One hour later, the peptide was rinsed off. The entry blocking activity was measured in half of the cultures, in which any extracellular virus remaining after the peptide treatment was inactivated with low pH citrate buffer. The rest of the cultures were exposed to PBS instead of citrate buffer and used to measure virus inactivation. Virus inactivation depended on persistent effects of the peptide lasting for a period of eight hours. At the end of that period, all cultures were fixed and infected cells were detected by staining with X-gal.\n(§2) Virus (m.o.i.=0.025) was preadsorbed to Vero cells for 1 h at 4° C. before cultures were exposed to TAT-C (FIG. 15A), bTAT-9X (FIG. 15B), or n50,51TAT-C (FIGS. 15C, 15D) for 1 h at 33 (FIGS. 15A, 15B), 31 (FIG. 15C), or 37° C. (FIG. 15D). […] Inhibition of entry was measured in the citrate-treated cultures, in which any remaining external virus was inactivated immediately following exposure to peptide (●). Persistent virus inactivation lasting, at least in part, for the 8 h period following exposure to peptide, was measured in the PBS-treated cultures (◯). The IC50s measured in these experiments are included in Table 5."}, "HSV-1 KOS mutant hrR3 [3]": {"tested_on": "HSV-1 KOS mutant hrR3", "conditions": "read-out: post-entry effects IC50; peptide added after citrate treatment, 8 h"}, "in vitro": {"test": "in vitro", "conditions": "African green monkey"}, "HSV-1 KOS mutant hrR3 [4]": {"tested_on": "HSV-1 KOS mutant hrR3", "test": "LacZ+ virus (hrR3) entry assay with pre-adsorbed virus (entry block)", "assay_type": "cell-based", "procedure": "LacZ^+ virus (hrR3) entry assay: Confluent Vero cell cultures in 96-well microtiter plates were switched to Hepes-buffered serum-free DMEM, cooled on ice to 4° C. for 30 min, and infected with hrR3 for 1 hour at 4° C. in 40 μL of medium. Unattached virus was removed by rinsing with ice-cold medium. Treatments with antiviral peptide SEQ ID NO:1, referred to as EB, or a control peptide which comprised the RRKK tetra-peptide (SEQ ID NO:16) attached to a scrambled version of the membrane transiting peptide RRKKLAALPLVLAAPLAVLA (SEQ ID NO:17) (referred to as EBX), or mock-treatments with peptide-free medium were carried out in serum-free DMEM as indicated. Virus entry was initiated by transferring cultures to 37° C. To inactivate any remaining extracellular virus, cultures were rinsed with PBS and exposed to low pH citrate buffer (40 mM citric acid, 10 mM KCl, 135 mM NaCl, pH 3.0, according to Highlander et al., J. Virol. 61:3356 (1987), for 1 min at 23° C. The citrate was rinsed off with PBS and cultures were maintained in serum-supplemented DMEM until they were fixed with 0.5% gluteraldehyde in 5×PBS for 30 min at 23° C., stained for β-galactosidase activity for 1 hour or overnight at 23° C. with X-gal (Fisher Biotech; BP1615-1) in 1×PBS containing […], 1.3 mM K4Fe(CN)6, and 1.3 mM K3Fe(CN)6, and scored for the presence of blue […] cells.\nIn these studies, the hrR3 virus was pre-adsorbed to cells for 1 hour at 4° C. before ice cold 25 μM EB or EBX were added in serum-free DMEM. After an additional 1 hour at 4° C., cultures were shifted to 37° C. to initiate virus entry. At 15 min intervals following the temperature shift, any virus remaining outside the cells was inactivated by washing the cultures with low pH citrate buffer. Cultures were then rinsed and returned to peptide-free serum-supplemented DMEM until they were fixed and stained for β-galactosidase 8 hours after the temperature shift.\nas §1, §2"}, "hrR3 virions": {"tested_on": "hrR3 virions", "test": "Inactivation of virions in solution", "assay_type": "cell-based, HSV-1", "conditions": "37° C.; read-out: Inactivation of Virions 37° C. IC50", "procedure": "Inactivation of virions: To assess the ability of peptides to inactivate virions, 3-4×10^6 pfu/mL of virus was mixed on ice with peptide in serum-free DMEM and incubated for 1 h at 4 or 37° C. Aliquots (10 μL) were diluted 1000-fold into peptide-free serum-supplemented DMEM at 23° C. and 50 μL aliquots were assayed in triplicate for infectivity in Vero cell cultures (dilution assay). Alternatively, 10 μL aliquots were diluted into 1 mL of ice-cold peptide-free serum-supplemented DMEM and the virus was pelleted as described above (centrifugation assay). Viral pellets were then resuspended in 250 μL serum-supplemented DMEM and 50 μL aliquots were assayed in triplicate for infectivity in Vero cell cultures.\nSome of the virus diluted without the addition of NaCl was pelleted immediately (Control), while the rest of the diluted virus was stored at 4° C. and pelleted 19 h later. The virus was pelleted and assayed for infectivity as described in Example 1."}, "hrR3": {"tested_on": "hrR3", "test": "Virucidal assay", "assay_type": "cell-based, HSV-1", "procedure": "[…] The treated virus was diluted 200-fold with serum-supplemented DMEM and assayed for infectivity approximately 1 hour later in microtiter wells seeded with Vero cells (3.5×10^4 cells/well) 1 d earlier. Forty or 100 microliter volumes of diluted virus were adsorbed for 1 or 2 h at 37° C. and lacZ^+ cells were scored 8 hours later. In some experiments, aliquots of diluted virus were first dialyzed (Spectra/Por; MWCO 12-14,000) overnight at 4° C. against a 60-fold excess volume of Hepes-buffered serum-supplemented DMEM or forced by syringe through 0.22 μm membranes (Millex-GV; Millipore) before the remaining infectious virus was assayed."}, "[5]": {"conditions": "33° C., read-out: Virus Inactivation IC50 (pre-adsorbed virus)"}, "[6]": {"conditions": "33° C., read-out: Entry Block IC50"}}, "note": "Read-outs that look alike come from different tables or passages of the source. Peptide text beside a SMILES is read from it. * marks the point of attachment. Biotin = O=C1N[C@H]2[C@H](CS[C@H]2CCCCC(=O)*)N1; Ahx = NCCCCCC(=O)O", "data": [{"compound": "N=C(N)NCCC[C@H](NC(=O)[C@@H](N)CCCNC(=N)N)C(=O)N[C@@H](CCCCN)C(=O)N[C@@H](CCCCN)C(=O)O", "note": "[R-R-K-K tetramer, R-R-K-K, reference compound] (H-RRKK-OH; N-terminus and C-terminus assumed)", "values": [{"measurement": "IC50", "setting": "HSV-1 KOS mutant hrR3 [1]", "value": 1300, "unit": "µM"}, {"measurement": "concentration with no antiviral activity", "setting": "HSV-1 KOS", "value": "> 200", "unit": "µM"}]}, {"compound": "CC(C)C[C@H](NC(=O)CCCCCNC(=O)CCCC[C@@H]1SC[C@@H]2NC(=O)N[C@@H]21)C(=O)N[C@H](C(=O)N[C@@H](CC(C)C)C(=O)N[C@@H](C)C(=O)N[C@@H](C)C(=O)N1CCC[C@H]1C(=O)N[C@@H](CC(C)C)C(=O)N[C@@H](C)C(=O)N[C@H](C(=O)N[C@@H](CC(C)C)C(=O)N[C@@H](C)C(=O)N1CCC[C@H]1C(=O)NCC(=O)N[C@@H](CCCNC(=N)N)C(=O)N[C@@H](CCCCN)C(=O)N[C@@H](CCCCN)C(=O)N[C@@H](CCCNC(=N)N)C(=O)N[C@@H](CCCNC(=N)N)C(=O)N[C@@H](CCC(N)=O)C(=O)N[C@@H](CCCNC(=N)N)C(=O)N[C@@H](CCCNC(=N)N)C(=O)N[C@@H](CCCNC(=N)N)C(=O)N[C@@H](CS)C(N)=O)C(C)C)C(C)C", "note": "[b12TAT-C] ({Biotin-Ahx}-LVLAAPLAVLAPGRKKRRQRRRC-NH2)", "values": [{"measurement": "IC50", "setting": "HSV-1 KOS mutant hrR3 [2]; [5]", "value": 11, "unit": "µM"}, {"measurement": "IC50", "setting": "HSV-1 KOS mutant hrR3 [3]", "value": 100, "unit": "µM"}, {"measurement": "IC50", "setting": "in vitro", "value": "~200", "unit": "µM"}, {"measurement": "IC50", "setting": "HSV-1 KOS mutant hrR3 [4]; [6]", "value": 3.3, "unit": "µM"}]}, {"compound": "CC(C)C[C@H](NC(=O)[C@H](CC(=O)O)NC(=O)[C@H](CC(N)=O)NC(=O)[C@@H](NC(=O)[C@@H](NC(=O)[C@H](C)NC(=O)CNC(=O)[C@H](C)NC(=O)[C@H](Cc1ccc(O)cc1)NC(=O)CNC(=O)[C@@H]1CCCN1C(=O)[C@H](CCCNC(=N)N)NC(=O)[C@H](CCCNC(=N)N)NC(=O)[C@H](CCCNC(=N)N)NC(=O)[C@H](CCC(N)=O)NC(=O)[C@H](CCCNC(=N)N)NC(=O)[C@H](CCCNC(=N)N)NC(=O)[C@H](CCCCN)NC(=O)[C@H](CCCCN)NC(=O)[C@H](CCCNC(=N)N)NC(=O)CNC(=O)[C@H](Cc1ccc(O)cc1)NC(=O)CCCCCNC(=O)CCCC[C@@H]1SC[C@@H]2NC(=O)N[C@@H]21)C(C)C)C(C)C)C(=O)O", "note": "[bTAT-9, b - YGRKKRRQRRR-9] ({Biotin-Ahx}-YGRKKRRQRRRPGYAGAVVNDL-OH)", "values": [{"measurement": "IC50", "setting": "HSV-1 KOS mutant hrR3 [2]; [5]", "value": 110, "unit": "µM"}, {"measurement": "IC50", "setting": "HSV-1 KOS mutant hrR3 [3]", "value": 210, "unit": "µM"}, {"measurement": "IC50", "setting": "in vitro", "value": "~200", "unit": "µM"}, {"measurement": "IC50", "setting": "HSV-1 KOS mutant hrR3 [4]; [6]", "value": 2.1, "unit": "µM"}]}, {"compound": "CC(C)C[C@H](NC(=O)CNC(=O)[C@H](CC(N)=O)NC(=O)[C@H](C)NC(=O)[C@H](Cc1ccc(O)cc1)NC(=O)[C@@H](NC(=O)[C@H](CC(=O)O)NC(=O)CNC(=O)[C@@H]1CCCN1C(=O)[C@H](CCCNC(=N)N)NC(=O)[C@H](CCCNC(=N)N)NC(=O)[C@H](CCCNC(=N)N)NC(=O)[C@H](CCC(N)=O)NC(=O)[C@H](CCCNC(=N)N)NC(=O)[C@H](CCCNC(=N)N)NC(=O)[C@H](CCCCN)NC(=O)[C@H](CCCCN)NC(=O)[C@H](CCCNC(=N)N)NC(=O)CNC(=O)[C@H](Cc1ccc(O)cc1)NC(=O)CCCCCNC(=O)CCCC[C@@H]1SC[C@@H]2NC(=O)N[C@@H]21)C(C)C)C(=O)N[C@H](C(=O)N[C@@H](C)C(=O)O)C(C)C", "note": "[bTAT-9X, b - YGRKKRRQRRR-9x] ({Biotin-Ahx}-YGRKKRRQRRRPGDVYANGLVA-OH)", "values": [{"measurement": "IC50", "setting": "HSV-1 KOS mutant hrR3 [2]; 33° C., read-out: Inactivation of Pre-Adsorbed Virus 33° C. IC50", "value": 200, "unit": "µM"}, {"measurement": "IC50", "setting": "HSV-1 KOS mutant hrR3 [2]; [5]", "value": 200, "unit": "µM"}, {"measurement": "IC50", "setting": "HSV-1 KOS mutant hrR3 [2]; 33° C., read-out: virus inactivation IC50", "value": 200, "unit": "µM"}, {"measurement": "IC50", "setting": "HSV-1 KOS mutant hrR3 [2]; 37° C., read-out: Inactivation of Pre-Adsorbed Virus 37° C. IC50", "value": 63, "unit": "µM"}, {"measurement": "IC50", "setting": "hrR3 virions", "value": "> 1200", "unit": "µM"}, {"measurement": "extent of inhibition of entry", "setting": "HSV-1 KOS mutant hrR3 [4]; 33° C.", "value": "~90", "unit": "%"}, {"measurement": "IC50", "setting": "HSV-1 KOS mutant hrR3 [4]; 33° C., read-out: Entry Block 33° C. IC50", "value": 2, "unit": "µM"}, {"measurement": "IC50", "setting": "HSV-1 KOS mutant hrR3 [4]; [6]", "value": 2, "unit": "µM"}, {"measurement": "IC50", "setting": "HSV-1 KOS mutant hrR3 [4]; 33° C., read-out: inhibition of entry IC50", "value": 2, "unit": "µM"}, {"measurement": "IC50", "setting": "HSV-1 KOS mutant hrR3 [4]; 37° C., read-out: Entry Block 37° C. IC50", "value": 8.7, "unit": "µM"}, {"measurement": "IC50", "setting": "HSV-1 KOS mutant hrR3 [4]; read-out: Entry Blocking Activity IC50", "value": 67, "unit": "µM"}, {"measurement": "Virucidal Activity 4° C. IC50", "setting": "hrR3; 4° C.", "value": "None"}, {"measurement": "Virucidal Activity 37° C. IC50", "setting": "hrR3; 37° C.", "value": "None"}]}]}
